Experimental data reported in ChEMBL document CHEMBL3886543, “Quinoline derivatives useful as CB-1 inverse agonists” (2016).
pEC50: −log10 of the molar value.

Tests used:
[1] = molecular target: T1, Cannabinoid receptor 1 (Homo sapiens, UniProt P21554); assay: Membranes were purchased from Perkin Elmer.
[2] = molecular target: T2, Cannabinoid receptor 2 (Homo sapiens, UniProt P34972); assay: Membranes were prepared as described in FELDER, C. C., et al., Molecular Pharmacology, 1992, pp 838-845, Vol. 42.
T2 sequence (P34972 whole entry): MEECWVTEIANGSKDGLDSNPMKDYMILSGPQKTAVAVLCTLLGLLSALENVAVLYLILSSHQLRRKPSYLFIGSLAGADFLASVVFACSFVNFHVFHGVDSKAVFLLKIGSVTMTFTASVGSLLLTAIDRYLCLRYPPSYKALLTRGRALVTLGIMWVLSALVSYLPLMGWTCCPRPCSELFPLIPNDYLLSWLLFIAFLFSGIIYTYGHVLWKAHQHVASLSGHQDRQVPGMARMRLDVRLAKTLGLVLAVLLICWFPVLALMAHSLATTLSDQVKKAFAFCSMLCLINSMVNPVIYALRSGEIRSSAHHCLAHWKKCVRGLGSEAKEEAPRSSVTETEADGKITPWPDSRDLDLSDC

[3] = molecular target: T1, Cannabinoid receptor 1; assay: (§1) cAMP Assay: The following mixtures and buffer solutions were prepared: (a) Buffer 1: HBSS (Mediatech Cat#21-023-CV) with 5 mM HEPES (1 mM stock, Gibco BRL Cat#15630-056) and 0.1% BSA (7.5% stock, Invitrogen Cat#15260-037); (b) Buffer 2: 0.5 mM IBMX (200 mM stock in DMSO, Sigma 15879) in Buffer 1; (c) 1 uM cAMP Standard (50 uM stock, Perkin Elmer Cat# AD0262) diluted in Buffer 2 and serially diluted in Buffer 2, 12 doses at 1/2 dilutions resulting in a dose range of 1 uM to 0.5 nM; (d) d2 labelled cAMP (CisBio HTRF Detection Kit Cat #62AM4PEB reconstituted with 6 ml dH2O) diluted 1/20 with lysis buffer (CisBio HTRF Detection Kit Cat #62AM4PEB); (e) anti-cAMP (CisBio HTRF Detection Kit Cat #62AM4PEB reconstituted with 5 ml dH2O) diluted 1/20 with lysis buffer (CisBio HTRF Detection Kit Cat #62AM4PEB); and (f) Forskolin (Sigma Cat# F6886, 10 mM in DMSO) diluted first in DMSO to 1 mM and then to 1.5 uM in Buffer 2.; format: functional
[4] = molecular target: T2, Cannabinoid receptor 2; assay: as §1; format: functional

T1 sequence (P21554 whole entry): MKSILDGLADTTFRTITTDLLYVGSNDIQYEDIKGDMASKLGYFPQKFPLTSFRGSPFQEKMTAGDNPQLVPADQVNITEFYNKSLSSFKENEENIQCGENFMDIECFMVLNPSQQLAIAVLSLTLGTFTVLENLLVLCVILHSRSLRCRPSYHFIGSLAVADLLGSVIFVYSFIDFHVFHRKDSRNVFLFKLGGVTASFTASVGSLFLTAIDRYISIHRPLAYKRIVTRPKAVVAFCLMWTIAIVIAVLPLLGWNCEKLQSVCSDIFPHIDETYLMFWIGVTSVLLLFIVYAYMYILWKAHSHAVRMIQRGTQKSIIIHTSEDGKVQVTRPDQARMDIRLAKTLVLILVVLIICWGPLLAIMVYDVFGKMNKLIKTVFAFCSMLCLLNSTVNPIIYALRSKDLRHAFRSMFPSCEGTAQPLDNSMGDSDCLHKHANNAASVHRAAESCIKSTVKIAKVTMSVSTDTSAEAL

SMILES | pEC50 [1] | pEC50 [2] | pEC50 [3] | pEC50 [4]
OC(c1ccc(Cl)cc1)(c1ccsc1)c1ccc2nccc(/C=C/c3ccccc3)c2c1 (centres undefined) | 6.65 |  |  | 
O=c1cc(/C=C/c2ccccc2)c2cc(C(c3ccc(Cl)cc3)c3ccc(Cl)cc3)ccc2[nH]1 | 7.45 |  |  | 
Cn1c(=O)cc(CCc2cccc(Cl)c2)c2cc(C(c3ccc(Cl)cc3)c3nccs3)ccc21 (centres undefined) | < 5.60 |  |  | 
O=c1cc(NC2CCN(S(=O)(=O)C(F)(F)F)CC2)c2cc(C(c3ccc(Cl)cc3)c3nccs3)ccc2[nH]1 (centres undefined) | 8.36 |  |  | 
Clc1ccc(C(c2ccc3nccc(/C=C/c4ccccc4)c3c2)c2nccs2)cc1 (centres undefined) | 7.26 | < 5.30 |  | 
OC(c1ccc(Cl)cc1)(c1ccc2nccc(/C=C/c3ccccc3)c2c1)c1cccs1 (centres undefined) | 7.00 |  |  | 
Clc1ccc(C(c2ccc3nccc(/C=C/c4ccccc4)c3c2)c2cccs2)cc1 (centres undefined) | 7.01 |  |  | 
OC(c1ccc(Cl)cc1)(c1ccc(Cl)cc1)c1ccc2nccc(/C=C/c3ccccc3)c2c1 | 7.28 |  |  | 
O=S(=O)(N1CCC(Nc2ccnc3c(NC4CCN(S(=O)(=O)C(F)(F)F)CC4)cc(C(c4ccc(Cl)cc4)c4ccc(Cl)cc4)cc23)CC1)C(F)(F)F |  |  | < 4.85 | < 4.85
COc1ccc(C(O)(c2ccc3nccc(/C=C/c4ccccc4)c3c2)c2nccs2)cc1 (centres undefined) | 5.73 |  |  | 

Now from value to compound:

pEC50 [1] | pEC50 [2] | pEC50 [3] | pEC50 [4] | SMILES
< 5.60 |  |  |  | O=c1cc(CCc2cccc(Cl)c2)c2cc(C(O)(c3ccc(Cl)cc3)c3nccs3)ccc2[nH]1 (centres undefined)
7.82 | < 5.30 |  |  | O=c1cc(/C=C/c2ccc(C(F)(F)F)cc2)c2cc(C(c3ccc(Cl)cc3)c3cccs3)ccc2[nH]1 (centres undefined)
8.92 | 7.28 |  |  | O=c1cc(NC2CCN(S(=O)(=O)C(F)(F)F)CC2)c2cc(C(c3ccc(Cl)cc3)c3ccc(Cl)cc3)ccc2[nH]1
 |  | < 5.00 | < 5.00 | N=C(N)N1CCC(Nc2cc(=O)[nH]c3ccc(C(c4ccc(Cl)cc4)c4ccc(Cl)cc4)cc23)CC1
6.48 |  |  |  | O=c1cc(CCc2cccc(Cl)c2)c2cc(C(c3ccc(Cl)cc3)c3nccs3)ccc2[nH]1 (centres undefined)
7.66 | < 5.30 |  |  | O=c1cc(/C=C/c2cccc(F)c2)c2cc(C(c3ccc(Cl)cc3)c3ccsc3)ccc2[nH]1 (centres undefined)
 |  | 7.17 | < 5.00 | CCOC(=O)CCCOc1ccc(Nc2cc(=O)[nH]c3ccc(C(c4ccc(Cl)cc4)c4ccc(Cl)cc4)cc23)cc1
 |  | 6.40 | < 5.00 | O=c1cc(/C=C/c2ccc(C(F)(F)F)cc2)c2cc(C(c3ccc(Cl)cc3)c3nccs3)ccc2[nH]1 (centres undefined)
 |  | 8.30 | < 5.00 | CC(C)(C)OC(=O)CN1CCC(Nc2cc(=O)[nH]c3ccc(C(c4ccc(Cl)cc4)c4ccc(Cl)cc4)cc23)CC1
8.39 |  |  |  | Clc1ccc(C(c2ccc(Cl)cc2)c2ccc3nccc(/C=C/c4ccccc4)c3c2)cc1
 |  | 7.82 | < 5.00 | O=c1cc(Nc2ccc(Cc3ccccc3)cc2)c2cc(C(c3ccc(Cl)cc3)c3ccc(Cl)cc3)ccc2[nH]1
 |  | 8.00 | < 5.00 | O=c1cc(Nc2ccc(F)c(Cl)c2)c2cc(C(c3ccc(Cl)cc3)c3ccc(Cl)cc3)ccc2[nH]1
7.46 |  |  |  | O=c1cc(/C=C/c2ccccc2)c2cc(C(c3ccc(Cl)cc3)c3nccs3)ccc2[nH]1 (centres undefined)
